A short description of this data set: Human HepG2 cell viability assay in 384 well format. Format: toxicity, cell-based. Set-up: dose 125 nL, time 70.5 hour; cytotoxicity at 70.5 h: concentration not given beside the values. The note with it: HepG2 cells, read-out: Inhibition.
As for `CN(C)CCN1CCC2(CCN(C(=O)c3cccnc3)CC2)C1=O`, the cytotoxicity at 70.5 h was -4.08%.
For `CN1CC2(CCCCN2C(=O)c2ccsc2)CC1=O` (configuration not stated), the cytotoxicity at 70.5 h worked out at 5.12%.
Consider `O=C(C1CCCO1)N1CCC2(CC1)COCCN2CC1CC1` (configuration not stated), for which the cytotoxicity at 70.5 h is 2.48%.
For the compound `Cc1nc(N2CCCC2)nc2c1CN(C(=O)N(C)C)CC2`, the cytotoxicity at 70.5 h is -1.53%.
With `COc1cc(CN2C[C@@H]3CNC(=O)[C@H](C)[C@@H]3C2)cc(OC)c1` the figure was -9.46%; with `CN(CC1CC1)c1ccc2ccc(C(=O)NC3CCCCC3)cn12`, 12.9%; with `c1cncc(-c2ccc3c(c2)C2(CCNCC2)CC3)c1`, 52.4%.
For the compound `CCN1C(=O)C2(CCOCC2)c2cc(NC(=O)COC)ccc21`, the cytotoxicity at 70.5 h is 14.9%.
With `COCC1CN(C(=O)c2cccc(C)n2)Cc2ncnn2C1` (configuration not stated) the figure was 17.7%; with `COCC1CN(C(=O)c2cnc(C)cn2)Cc2ncnn2C1` (configuration not stated), 19%.
For the compound `CN1CCN(C(=O)N2CCCC2)Cc2cccnc21`, the cytotoxicity at 70.5 h was -6.35%.
Take `CCN1C(=O)C2(CCOCC2)c2cc(NC(=O)c3cnoc3C)ccc21`: the cytotoxicity at 70.5 h is -6.08%.
With `Cc1occc1C(=O)N1CCC2(CCN(Cc3nccs3)CC2)C1` the figure was -5.43%.
Turning to `Cc1nc([C@@H]2C[C@@H]3CCN(Cc4cnn(C)c4)C[C@H]3O2)sc1C`, the cytotoxicity at 70.5 h was -5.41%.
Regarding `Cn1cc(CN2CC[C@H]3C[C@@H](c4nc(C5CC5)cs4)O[C@@H]3C2)cn1`, the cytotoxicity at 70.5 h is 5.37%.
With `CN(C)C(=O)CO[C@@H]1CN(Cc2ccccc2)[C@@H]2CCCO[C@@H]21` the figure was 6.93%; with `O=C(O)c1ccc2c(c1)C1(CCCCC1)CN2C(=O)c1cccs1`, -4.48%.
With `CC(C)C[C@H](N)C(=O)N1CC2(CCNCC2)c2cc(Cl)ccc21` the figure was 3.38%.
As to `Cc1cccc(CN2C(=O)CCC23CCN(C(=O)NC(C)C)CC3)n1`, the cytotoxicity at 70.5 h is -2.54%.
As for `CN1CCN(C)C2(CCN(Cc3ccsc3)CC2)C1=O`, the cytotoxicity at 70.5 h was 16.8%.
The same measure for `C[C@H]1C(=O)NC[C@H]2CN(Cc3cccc(F)c3)C[C@H]21`: -8.78%; for `Cn1cc(CN2C[C@H]3CN(c4cncnc4)C(=O)[C@H]3C2)cn1`: -2.54%; for `COc1ccc(CN2C[C@H]3CN(c4cncnc4)C(=O)[C@H]3C2)cc1`: -5.39%.
`CN1CCN(C(=O)Cc2ccc(F)cc2)Cc2cccnc21`: the cytotoxicity at 70.5 h was 5.52%.
The same measure for `Cc1nc(CN2CCC3(CCN(C(=O)c4ccoc4C)CC3)C2)cs1`: -6.97%; for `Cc1cnc(C(=O)N2CCCn3c(nc(CN(C)C)cc3=O)C2)cn1`: 9.93%.
With `CN(C)CCN1CCC2(CCN(C(=O)c3ccncc3)CC2)C1=O` the figure was -7.69%.
With `CC(=O)N1CCN(Cc2ccncc2)CC2(CC(=O)N(C)C2)C1` (configuration not stated) the figure was -7.88%; with `Cc1nc(CN2CCC3(CC2)NC(=O)CC3c2ccncc2)cs1` (configuration not stated), -5.12%; with `Cc1ccc(CN2CCC3(CC2)C(=O)N(CC(C)C)CCN3C)s1`, 22.7%.
As for `CCN1CCN(C)C2(CCN(Cc3ccsc3)CC2)C1=O`, the cytotoxicity at 70.5 h is -9.43%.
With `Cc1noc(C)c1CN1CCC2(CC1)CN(c1ccccn1)CCO2` the figure was 17.3%; with `CN1CCN(Cc2cccnc2)C2(CCN(c3ncccn3)C2)C1=O` (configuration not stated), -5.32%; with `Cc1cnc(N2CCC3(C2)C(=O)N(C)CCN3Cc2cccnc2)nc1` (configuration not stated), -5.14%.
Consider `COc1ccc(CN2CCC3(CCN(c4cccnc4)C3=O)C2)cc1` (configuration not stated), for which the cytotoxicity at 70.5 h came out at 1.92%.
The same measure for `CN1CCN(Cc2cccnc2)C2(CCN(Cc3ccoc3)C2)C1=O` (configuration not stated): 20.4%.
With `COc1ncccc1CN1CCC2(CC1)CN(c1ccccn1)CCO2` the figure was -6.12%.

(Values after ChEMBL document CHEMBL3507680, “University of Dundee, Gates Library screen for HepG2 cell viability”.)
